{"source": "patent US12377069B2", "about": "“Compounds, compositions, methods of using, and methods for preparing compounds” (UNIVERSITY OF LOUISVILLE RESEARCH FOUNDATION, INC., priority 2018, dated 2025)", "key": {"[1]": {"assay": "Stability at gastric pH and with digestive enzymes", "assay_type": "in vitro ADME", "details": "pH 2.0; enzymes 100 U/ml, 12 h, 37° C.; 0.2 mg/ml", "method": "FIG. 1: UAS03 is a potent anti-inflammatory structural analogue of UroA and induces tight junction proteins. (A) Chemical structures of UroA, UAS03. UroA/UAS03 stability was examined in the presence of gastric pH 2.0 and digestive enzymes. UroA and UAS03 (0.2 mg/ml) were incubated with digestive enzymes (esterases and proteases, 100 U/ml) for 12 h at 37° C. and compound levels were quantified. (B) BMDMs were stimulated with LPS (50 ng/ml) without or with UroA (blue line)/UAS03 (purple line) (0.1, 1, 10, 25 and 50 μM) for 6 hours. IL-6 and TNF-α levels in supernatants were measured. (C) C57BL/6 mice (n=3-4) were pretreated with UroA (20 mg/kg) and UAS03 (20 mg/kg). After 4 hours, LPS (2 mg/kg) was injected intraperitoneally. Post 4 h of LPS administration, serum levels of IL-6 and TNF-α was measured. […] (G) The fold changes in mRNA levels of claudin 4 (Cldn4), occludin (Ocln) and Zona occludens 1 (ZO1) in HT29 cells were determined by RT PCR method. (H) UroA/UAS03 induced protein expression of Cldn4, Ocln and ZO1 in HT29 cells were determined by immunoblots and quantified by Image J software. […] The green intensity (n=15-20 cell membrane regions) was measured. […] The protein lysates were prepared from colon scrapes and subjected to immunoblots and detected the expression of the (J) Nrf2, HO1, Cldn4 and (K) AhR using appropriate antibodies as described in methods. […]"}, "colon cancer cells": {"tested_on": "colon cancer cells", "assay": "Clonogenic and wound healing assays", "assay_type": "cell-based"}, "human primary monocytes": {"tested_on": "human primary monocytes", "assay": "LPS and EtOH induced TNF-α in human primary monocytes", "assay_type": "cell-based", "details": "EtOH 25 mM 7 days; LPS 50 ng/ml", "method": "FIG. 11: UroA reduces the LPS and EtOH induced TNF-α in human primary monocytes. (A) Human primary monocytes treated with UroA and LPS (50 ng/ml) for 6 h. The TNF-α in supernatant was measured. (B) Human primary monocytes were exposed to EtOH (25 mM) for 7 days. LPS (50 ng/ml) and UroA were added at day 6 and incubated for 24 h. The TNF-α levels in supernatant were measured using standard ELISA methods. Statistics performed using unpaired t-test using Graphpad Prism software. Error bars, ±SEM; ***p<0.001; **p<0.01\nUroA reduces the LPS and EtOH induced TNF-α in human primary monocytes. Peripheral blood monocytes from chronic alcoholism patients produce increased spontaneous inflammatory mediators such as TNF-α, IL-6, IL-10 and IL-12. To mimic this condition, healthy peripheral blood monocytes were exposed for one week and tested whether UroA/UAS03 reduce the LPS-induced TNF-α."}, "P-glycoprotein (P-gp)": {"target": "P-glycoprotein (P-gp) (Homo sapiens, UniProt P08183)", "sequence (P08183 whole entry)": "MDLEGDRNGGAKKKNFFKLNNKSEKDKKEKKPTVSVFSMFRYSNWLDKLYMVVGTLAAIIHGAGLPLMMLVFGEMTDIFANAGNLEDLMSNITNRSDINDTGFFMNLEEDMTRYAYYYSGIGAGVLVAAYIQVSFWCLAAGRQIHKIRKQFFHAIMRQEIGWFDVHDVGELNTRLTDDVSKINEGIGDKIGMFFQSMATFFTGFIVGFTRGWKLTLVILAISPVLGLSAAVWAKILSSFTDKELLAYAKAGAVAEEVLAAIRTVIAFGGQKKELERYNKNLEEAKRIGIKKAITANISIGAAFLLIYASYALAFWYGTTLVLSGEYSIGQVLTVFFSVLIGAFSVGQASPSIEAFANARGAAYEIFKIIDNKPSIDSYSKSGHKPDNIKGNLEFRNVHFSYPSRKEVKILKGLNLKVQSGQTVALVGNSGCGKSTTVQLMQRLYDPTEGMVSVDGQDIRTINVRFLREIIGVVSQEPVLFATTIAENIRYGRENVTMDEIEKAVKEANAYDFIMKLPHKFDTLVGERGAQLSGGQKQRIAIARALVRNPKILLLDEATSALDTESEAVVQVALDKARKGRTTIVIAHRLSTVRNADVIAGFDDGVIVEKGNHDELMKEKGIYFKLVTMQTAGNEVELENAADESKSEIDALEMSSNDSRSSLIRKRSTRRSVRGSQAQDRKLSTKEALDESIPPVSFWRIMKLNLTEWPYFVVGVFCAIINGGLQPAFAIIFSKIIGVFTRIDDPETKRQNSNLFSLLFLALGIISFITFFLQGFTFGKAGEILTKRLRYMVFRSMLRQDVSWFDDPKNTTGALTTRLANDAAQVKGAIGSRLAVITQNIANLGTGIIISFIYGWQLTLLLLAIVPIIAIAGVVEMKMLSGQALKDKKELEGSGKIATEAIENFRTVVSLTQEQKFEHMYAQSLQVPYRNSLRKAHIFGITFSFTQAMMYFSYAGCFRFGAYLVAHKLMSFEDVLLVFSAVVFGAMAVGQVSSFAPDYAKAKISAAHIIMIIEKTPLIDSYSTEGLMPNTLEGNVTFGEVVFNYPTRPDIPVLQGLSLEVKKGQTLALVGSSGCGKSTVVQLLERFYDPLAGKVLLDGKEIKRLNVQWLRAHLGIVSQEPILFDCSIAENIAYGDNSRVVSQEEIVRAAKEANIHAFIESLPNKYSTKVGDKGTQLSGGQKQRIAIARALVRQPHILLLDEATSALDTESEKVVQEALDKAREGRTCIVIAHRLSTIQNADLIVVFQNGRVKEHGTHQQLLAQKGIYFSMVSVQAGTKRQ", "text": "(§1) Therefore, blocking its activity and/or downregulating the expression of BCRP, P-gp could reverse the effect and sensitize the cancer cells."}, "T84 cells": {"tested_on": "T84 cells", "assay": "EtOH-induced internalization of junction proteins", "assay_type": "cell-based", "details": "50 μM 1 h, then EtOH 40 mM 6 h", "text": "The membrane and cytosolic fractions were isolated and evaluated for tight junction (TJ) and adherins junction (AJ) and desmosomes. […] (i.e., EtOH treatment alone has more cytosolic protein and EtOH+UroA has more membrane fraction) (FIG. 20)."}, "[2]": {"tested_on": "colon cancer cell line (SW480)", "details": "human"}, "[3]": {"target": "T1, breast cancer resistance protein (BCRP) (Homo sapiens, UniProt Q9UNQ0)", "T1 construct": "endogenous in cells", "T1 sequence (Q9UNQ0 whole entry)": "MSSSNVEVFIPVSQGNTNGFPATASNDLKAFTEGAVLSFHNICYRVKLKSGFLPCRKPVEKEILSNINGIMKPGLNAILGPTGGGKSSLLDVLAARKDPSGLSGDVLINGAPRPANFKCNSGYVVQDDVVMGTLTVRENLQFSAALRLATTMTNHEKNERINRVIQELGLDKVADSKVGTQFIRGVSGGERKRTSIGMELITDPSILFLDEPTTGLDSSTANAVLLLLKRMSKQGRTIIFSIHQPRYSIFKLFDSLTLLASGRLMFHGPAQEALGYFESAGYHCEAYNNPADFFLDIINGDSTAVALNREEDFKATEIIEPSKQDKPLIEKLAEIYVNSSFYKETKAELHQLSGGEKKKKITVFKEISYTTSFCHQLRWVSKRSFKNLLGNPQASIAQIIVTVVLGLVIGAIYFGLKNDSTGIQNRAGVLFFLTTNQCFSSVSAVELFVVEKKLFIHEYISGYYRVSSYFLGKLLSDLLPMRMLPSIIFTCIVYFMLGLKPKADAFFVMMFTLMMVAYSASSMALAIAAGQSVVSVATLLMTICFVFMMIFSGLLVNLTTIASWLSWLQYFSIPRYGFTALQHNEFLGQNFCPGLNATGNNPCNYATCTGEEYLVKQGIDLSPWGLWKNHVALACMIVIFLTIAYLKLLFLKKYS", "assay": "BCRP drug efflux activity", "assay_type": "cell-based", "details": "colon cancer cell lines", "text": "as §1"}}, "note": "Entries after “also recorded” stand apart in the source; their conditions may differ."}
{"smiles": "Oc1ccc2c(c1)COc1cc(O)ccc1-2", "note": "[UAS03, 6H-benzo[c]chromene-3,8-diol]", "values": [{"measurement": "stability at gastric pH and in the presence of gastric enzymes (esterases and proteases)", "setting": "[1]", "value": "stable"}]}
{"smiles": "O=c1oc2cc(O)ccc2c2ccc(O)cc12", "note": "[UroA, 3,8-dihydroxy-6H-dibenzo[b,d]pyran-6-one]", "values": [{"measurement": "colon cancer cell colony formation (clonogenic assay)", "setting": "colon cancer cells", "value": "reduced"}, {"measurement": "cell growth and migration into scratch (wound healing assay)", "setting": "colon cancer cells; in combination with 5FU", "value": "inhibited cell growth and migration"}, {"measurement": "LPS-induced TNF-α in chronically EtOH exposed human monocytes", "setting": "human primary monocytes", "value": "reduced"}, {"measurement": "drug efflux activity of P-glycoprotein (P-gp)", "setting": "P-glycoprotein (P-gp)", "value": "decreased drug efflux activities"}, {"measurement": "efflux of Rh123", "setting": "P-glycoprotein (P-gp); 50 μM", "value": "blocked efflux of Rh123"}, {"measurement": "EtOH-induced internalization of membrane junction proteins to cytosol", "setting": "T84 cells", "value": "protected from EtOH-induced internalization"}, {"measurement": "cell viability in combination with 5FU", "setting": "[2]", "value": 69, "unit": "%"}, {"measurement": "BCRP drug efflux activity", "setting": "[3]", "value": "decreased drug efflux activities; also recorded: reduced the BCRP activity"}]}
